Source: paper PMC12140300, “Development of Carbon‐11 Labeled Pyrimidine Derivatives as Novel Positron Emission Tomography (PET) Agents Enabling Brain Sigma‐1 Receptor Imaging” (Advanced Science, 2025)
pKi: −log10 of the molar value. Read-outs that look alike come from different tables or passages of the source. Values belong to the compound of their own block, whether it stands above or below them.

Assays:
σ1R [1] = target: T1, σ1R (Mus musculus, UniProt O55242); test: Mice PET/CT imaging, baseline and self-blocking; type: in vivo, C57BL/6 mice
T1 construct: The PET/CT studies in mice followed previously reported procedures; from tissue; host or cells: mouse brain in vivo (C57BL/6 wild type; 5xFAD transgenic)
Protocol: PET/CT imaging studies of [^11C]CNY‐01 and [^11C]CNY‐02 were performed in male C57BL/6 mice. […] The whole‐brain time‐activity curve (TAC) of each tracer was generated. […] To investigate the binding specificity of [^11C]CNY‐01 and [^11C]CNY‐02, blocking studies were carried out by pre‐administrating mice with corresponding unlabeled ligands. […] This is due to the receptors in peripheral tissues being occupied by CNY‐01, leading to more radiotracer entering the brain and quickly washing out. […] Of note, the TACs show an increase in brain tracer uptake during the blocking studies, which could be attributed to peripheral blocking effects. To address this, we normalized the brain uptake data to the maximum radioactivity observed in the blood (input function). This normalization allowed us to account for peripheral changes in tracer availability.
Figure 3 Mice PET/CT study with [^11C]CNY‐01 and [^11C]CNY‐02. A) Representative baseline and blocking (pre‐treated with 1.0 mg kg^−1 CNY‐01) PET/CT images of [^11C]CNY‐01 focused on the brain (summed 30‒60 min, n = 4). B) Whole brain time‐activity curves of [^11C]CNY‐01 for baseline and blocking mice. C) The normalized baseline and blocking TACs of [^11C]CNY‐01 (normalized the brain uptake curves with the maximum radioactivity in the blood at each time point). D) Representative baseline and blocking (pre‐treated with 1.0 mg kg^−1 CNY‐02) PET/CT images of [^11C]CNY‐02 focused on the brain (summed 30‒60 min, n = 4). E) Whole brain time‐activity curves of [^11C]CNY‐02 for baseline and blocking mice. F) The normalized baseline and blocking TACs of [^11C]CNY‐02 (normalized the brain uptake curves with the maximum radioactivity in the blood at each time point). Data were presented as mean ± standard error of the mean (SEM). Quantification of results was performed using Student's t‐test (***p < 0.0001).
The PET/CT studies in mice followed previously reported procedures with minor modifications.^[ [53], [54] ^] Mice (wild‐type: C57BL/6, male, 6‐month‐old; AD transgenic: 5xFAD, male, 6‐month‐old, n = 4 for each group) were anesthetized with inhalational isoflurane (Patterson Vet Supply, Inc., Greeley, CO, USA) at 2.0% in a carrier of 2 L min^−1 medical oxygen, and maintained at 1.0% isoflurane during the imaging scan. Mice were injected with radiotracer (200 µL) via lateral tail vein catheterization at the start of the dynamic PET scan (Gamma Medica, Northridge, CA, USA). For blocking studies, the blocking agent was administered via the tail vein 5 min before radiotracer injection. Dynamic PET acquisition lasted 60 min and was followed by computed tomography (CT) for anatomic co‐registration. […] Reconstructed images were exported from the scanner in DICOM format and were analyzed using PMOD (PMOD 4.01).

σ1R [2] = conditions: cited from earlier work
σ1R [3] = system: σ1R; design: method as in PMID 28572487; conditions: human brain, three-hour imaging period; cited from earlier work
σ2R [4] = system: σ2R; design: method as in PMID 26384292; conditions: selectivity ratio; cited from earlier work
[5] = target: emopamil binding protein (EBP); design: method as in PMID 11377189; conditions: off-target affinity; cited from earlier work
[6] = target: vesicular acetylcholine transporter (VAChT); conditions: off-target affinity; literature value, no reference given; cited from earlier work
σ2R [7] = system: σ2R; design: method as in PMID 25420090; conditions: selectivity ratio, previous work; cited from earlier work
[8] = system: non-target receptors or ion channels; design: method as in PMID 25420090; conditions: cited from earlier work
[9] = design: method as in PMID 25420090; conditions: cited from earlier work
σ1R [10] = system: σ1R; design: method as in PMID 25420090; conditions: rodent acute and neuropathic pain models; cited from earlier work

T1 sequence (O55242 whole entry): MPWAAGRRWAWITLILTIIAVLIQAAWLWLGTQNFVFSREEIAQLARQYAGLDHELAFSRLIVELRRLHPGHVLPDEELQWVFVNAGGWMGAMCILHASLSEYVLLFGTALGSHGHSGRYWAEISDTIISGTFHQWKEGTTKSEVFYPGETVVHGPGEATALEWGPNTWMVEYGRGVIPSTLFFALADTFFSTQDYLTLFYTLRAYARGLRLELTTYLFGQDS

maximum standard uptake value (SUV) in the brain (σ1R [1]; male C57BL/6 mice, baseline PET/CT): 0.7
SMILES: Cc1nc(-c2ccc(Cl)cc2)nc(OCCCN2CCN([11CH3])CC2)c1Cl [[^11C]CNY-02]
blocking effect, brain uptake normalized to maximum radioactivity in the blood (σ1R [1]; pre-treated with 1.0 mg kg^−1 of the corresponding unlabeled ligand): does not show a significant blocking effect

SMILES: O=c1sc2cc(CCC[18F])ccc2n1CCN1CCCCCC1 [[^18F]FTC-146]
pKi (σ1R [2]): 11.60
brain clearance (σ1R [3]): unexpectedly slow brain clearance

SMILES: COc1cc(CCN2CCN(CCCc3ccccc3)CC2)ccc1O[11CH3] [[^11C]SA4503]
σ2R/σ1R (σ2R [4]): 13.3–55.0
pKi [5]: 8.77
pKi [6]: 7.30

SMILES: Cc1nc(-c2ccc(Cl)cc2)nc(OCCCN2CCCCC2)c1Cl [Lan-0101, 5‐chloro‐2‐(4‐chlorophenyl)‐4‐methyl‐6‐(3‐(piperidin‐1‐yl)propoxy)pyrimidine]
σ2R/σ1R (σ2R [7]): 1344
binding affinities to non-target receptors or ion channels [8]: no significant binding affinities
brain penetration [9]: good brain penetration
antinociceptive effects (σ1R [10]): dose‐dependent antinociceptive effects
